Data: paper PMC3530924 (Bioorganic & medicinal chemistry, 2010)
Where two headings read alike, the source gives them in different places.

How the values were obtained:
[1] = molecular target: T1, CT-L activity of purified rabbit 20S proteasome (Oryctolagus cuniculus, UniProt G1SU71+G1T4Q9); test: Fluorometric assay of CT-L proteolytic activity of purified 20S proteasome; type: biochemical
T1 sequence (G1T4Q9 60-263): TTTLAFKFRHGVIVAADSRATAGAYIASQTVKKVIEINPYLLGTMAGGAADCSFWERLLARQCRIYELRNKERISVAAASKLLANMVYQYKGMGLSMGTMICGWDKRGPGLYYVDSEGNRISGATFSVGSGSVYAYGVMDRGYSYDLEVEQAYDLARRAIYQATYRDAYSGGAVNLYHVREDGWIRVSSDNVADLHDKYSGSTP
T1 sequence (G1SU71 29-241): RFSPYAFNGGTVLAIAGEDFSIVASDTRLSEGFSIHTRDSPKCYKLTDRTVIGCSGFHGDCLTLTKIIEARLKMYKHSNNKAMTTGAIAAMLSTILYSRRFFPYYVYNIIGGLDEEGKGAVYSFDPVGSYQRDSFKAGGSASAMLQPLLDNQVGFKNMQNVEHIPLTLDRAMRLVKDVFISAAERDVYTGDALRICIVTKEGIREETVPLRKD

[2] = test system: CT-L activity of rabbit 20S proteasome; test: Dialysis; type: biochemical; conditions: compounds 10 µM; for inhibition of CT-L activity of the 20S proteasome in the absence of dialysis: 3 nM rabbit 20S proteasome, 30 min pre-incubation, no dialysis; for time of dialysis at which CT-L activity started to recover: dialysis at 4 °C against assay buffer
MCF-7 cells = conditions: read-out: IC50 cell viability; cited from earlier work
purified Calpain = test: Inhibition of purified Calpain; type: biochemical; conditions: read-out: IC50 purified Calpain; data not reported in the paper
[3] = test system: cancer cell lines derived from prostate, lung and multiple myeloma; conditions: cited from earlier work
[4] = test system: human breast and lung tumors implanted as xenografts; conditions: nude mice; cited from earlier work
[5] = test system: primary cells derived from patients with multiple myeloma; conditions: cited from earlier work
[6] = read-out: In vitro IC50 CT-L activity, purified rabbit 20S proteasome, Suc-Leu-Leu-Val-Tyr-AMC, 1 hour at 37 °C, pH 7.6, tested in triplicate at least twice

Row | Molecule | IC50 [1] | further results
1 | 4-(6-amino-3-chloro-1,4-dioxo-1,4-dihydronaphthalen-2-ylamino)-N- (pyridin-2-yl)benzenesulfonamide and 4-(7-amino-3-chloro-1,4-dioxo-1,4-dihydronaphthalen-2-ylamino)- N-(pyridin-2-yl)benzenesulfonamide [Compound 8] |  | inhibitory activity in the in vitro enzymatic assay ([1]; CT-L, mixtures of isomers): did not lead to any appreciable inhibitory activities
2 | O=C1C=CC(=O)c2ccccc21 [1,4-naphthoquinone] | > 100 µM | 
3 | O=C1C(Cl)=C(Cl)C(=O)c2ccccc21 [2,3-dichloronaphthoquinone] |  | IC50 [1, 6]: > 100 µM
4 | CC1=CC(=O)c2ccccc2C1=O [2-methyl-1,4-naphthoquinone] | > 100 µM | 
5 | CC(C)C[C@H](NC(=O)[C@H](Cc1ccccc1)NC(=O)c1cnccn1)B(O)O [Bortezomib, reference compound] |  | inhibition of CT-L activity of the 20S proteasome in the absence of dialysis [2]: 99%; time of dialysis at which CT-L activity started to recover [2]: 4 h
6 | COc1cnc(NS(=O)(=O)c2ccc(NC3=C(Cl)C(=O)c4ccccc4C3=O)cc2)nc1 [Compound 2e, 4-(3-Chloro-1,4-dioxo-1,4-dihydronaphthalen-2-ylamino)-N-(5-methoxypyrimidin-2-yl)benzenesulfonamide] | 100 µM | 
7 | COc1cc(NS(=O)(=O)c2ccc(NC3=C(Cl)C(=O)c4ccccc4C3=O)cc2)nc(OC)n1 [Compound 2i, 4-(3-Chloro-1,4-dioxo-1,4-dihydronaphthalen-2-ylamino)-N-(2,6-dimethoxypyrimidin-4-yl)-benzenesulfonamide] | 100 µM | 
8 | CC1=C(Nc2ccc(S(=O)(=O)Nc3ccccn3)cc2)C(=O)c2ccccc2C1=O [Compound 2k, 4-(3-Methyl-1,4-dioxo-1,4-dihydronaphthalen-2-ylamino)-N-(pyridin-2-yl)benzenesulfonamide] | > 100 µM | 
9 | CC1=C(Nc2ccc(S(=O)(=O)NC(=O)c3ccccc3)cc2)C(=O)c2ccccc2C1=O [Compound 2l, N-(4-(3-methyl-1,4-dioxo-1,4-dihydronaphthalen-2-ylamino)phenylsulfonyl) benzamide] | > 100 µM | 
10 | COc1cnc(NS(=O)(=O)c2ccc(NC3=C(C)C(=O)c4ccccc4C3=O)cc2)nc1 [Compound 2m, N-(5-methoxypyrimidin-2-yl)-4-(3-methyl-1,4-dioxo-1,4-dihydronaphthalen-2-ylamino)-benzenesulfonamide] | > 100 µM | 
11 | O=C(NS(=O)(=O)c1ccc(NC2=CC(=O)c3ccccc3C2=O)cc1)c1ccccc1 [Compound 2p, N-(4-(1,4-dioxo-1,4-dihydronaphthalen-2-ylamino)phenylsulfonyl)benzamide] | > 100 µM | 
12 | Cc1cc(NS(=O)(=O)c2ccc(NC3=CC(=O)c4ccccc4C3=O)cc2)no1 [Compound 2q, 4-(1,4-Dioxo-1,4-dihydronaphthalen-2-ylamino)-N-(5-methylisoxazol-3-yl)benzenesulfonamide] | > 100 µM | 
13 | O=C1C=C(Nc2ccc(S(=O)(=O)Nc3ccccn3)cc2)C(=O)c2ccccc21 [Compound 2r, 4-(1,4-Dioxo-1,4-dihydronaphthalen-2-ylamino)-N-(pyridin-2-yl)benzenesulfonamide] | > 100 µM | 
14 | NS(=O)(=O)c1ccc(NC2=C(Cl)C(=O)c3ccccc3C2=O)cc1 [Compound 2t, 4-(3-Chloro-1,4-dioxo-1,4-dihydronaphthalen-2-ylamino)benzenesulfonamide] | > 100 µM | 
15 | O=C1C(Cl)=C(Nc2ccc(S(=O)(=O)Nc3ccc(Cl)cc3)cc2)C(=O)c2ccccc21 [Compound 2u, 4-(3-Chloro-1,4-dioxo-1,4-dihydronaphthalen-2-ylamino)-N-(4-chlorophenyl)benzenesulfonamide] | > 100 µM | 
16 | O=C1C(Cl)=C(Nc2ccc(S(=O)(=O)Nc3ccc(F)cc3F)cc2)C(=O)c2ccccc21 [Compound 2v, 4-(3-Chloro-1,4-dioxo-1,4-dihydronaphthalen-2-ylamino)-N-(2,4-difluorophenyl)benzenesulfonamide] | > 100 µM | 
17 | O=C1C(Cl)=C(Nc2ccc(S(=O)(=O)Nc3ccc(Cl)cc3Cl)cc2)C(=O)c2ccccc21 [Compound 2w, 4-(3-Chloro-1,4-dioxo-1,4-dihydronaphthalen-2-ylamino)-N-(2,4-dichlorophenyl)benzenesulfonamide] | > 100 µM | 
18 | CN(C1=C(Cl)C(=O)c2ccccc2C1=O)c1ccc(S(=O)(=O)Nc2ccccn2)cc1 [Compound 6a, 4-((3-Chloro-1,4-dioxo-1,4-dihydronaphthalen-2-yl)(methyl)amino)-N-(pyridin-2-yl) benzenesulfonamide] |  | IC50 [1, 6]: > 100 µM
19 | CCN(C1=C(Cl)C(=O)c2ccccc2C1=O)c1ccc(S(=O)(=O)Nc2ccccn2)cc1 [Compound 6b, 4-((3-Chloro-1,4-dioxo-1,4-dihydronaphthalen-2-yl)(ethyl)amino)-N-(pyridin-2-yl) benzenesulfonamide] |  | IC50 [1, 6]: > 100 µM
20 | O=C1C(Cl)=C(N(Cc2ccccc2)c2ccc(S(=O)(=O)Nc3ccccn3)cc2)C(=O)c2ccccc21 [Compound 6c, 4-(Benzyl(3-chloro-1,4-dioxo-1,4-dihydronaphthalen-2-yl)amino)-N-(pyridin-2-yl) benzenesulfonamide] |  | IC50 [1, 6]: > 100 µM
21 | O=C1C(Cl)=C(N(Cc2ccc([N+](=O)[O-])cc2)c2ccc(S(=O)(=O)Nc3ccccn3)cc2)C(=O)c2ccccc21 [Compound 6d, 4-((3-Chloro-1,4-dioxo-1,4-dihydronaphthalen-2-yl)(4-nitrobenzyl)amino)-N-(pyridin-2-yl)benzenesulfonamide] | > 100 µM | 
22 | O=C1C(Cl)=C(N(Cc2ccc3ccccc3c2)c2ccc(S(=O)(=O)Nc3ccccn3)cc2)C(=O)c2ccccc21 [Compound 6e, 4-((3-Chloro-1,4-dioxo-1,4-dihydronaphthalen-2-yl)(naphthalen-2-ylmethyl)amino)-N-(pyridin-2-yl)benzenesulfonamide] | > 100 µM | 
23 | Cc1ccc(CN(C2=C(Cl)C(=O)c3ccccc3C2=O)c2ccc(S(=O)(=O)Nc3ccccn3)cc2)cc1 [Compound 6f, 4-((3-Chloro-1,4-dioxo-1,4-dihydronaphthalen-2-yl)(4-methylbenzyl)amino)-N-(pyridin-2-yl)benzenesulfonamide] | > 100 µM | 
24 | O=C1C(Cl)=C(N(Cc2ccc(C(F)(F)F)cc2)c2ccc(S(=O)(=O)Nc3ccccn3)cc2)C(=O)c2ccccc21 [Compound 6g, 4-((3-Chloro-1,4-dioxo-1,4-dihydronaphthalen-2-yl)(4-(trifluoromethyl)benzyl)amino)-N-(pyridin-2-yl)benzenesulfonamide] | > 100 µM | 
25 | O=C1C(Cl)=C(Nc2ccc(S(=O)(=O)Nc3ccccn3)cc2)C(=O)c2ccccc21 [PI-083, 4-(3-Chloro-1,4-dioxo-1,4-dihydronaphthalen-2-ylamino)-N-(pyridin-2-yl)benzenesulfonamide] |  | IC50 (MCF-7 cells): 2.31 ± 0.1 µM; IC50 (purified Calpain): > 30 µM; apoptosis in cancer cell lines [3]: induces apoptosis; growth of human breast and lung tumor xenografts [4]: suppresses the growth; proliferation and survival of primary cells [5]: efficient in inhibiting proliferation and survival; inhibition of CT-L activity of the 20S proteasome in the absence of dialysis [2]: 88%; time of dialysis at which CT-L activity started to recover [2]: 1 h
26 | Nc1ccc(S(=O)(=O)Nc2ccccn2)cc1 [sulfapyridine] | > 100 µM | 
